Data: patent US20120121591A1 (priority 2009, published 2012)
Like-named read-outs stand apart in the source and are kept apart here.

What was measured:
Type in all cases: cell-based
[1] = target: hKv1.3 (Homo sapiens, UniProt P22001); experiment: cell-based; conditions: Kv1.3 (IWQ) IC50 (nM, Avg)
[2] = test system: IL-2 secretion from T cells in human whole blood; conditions: read-out: WB (IL-2) IC50 (nM, Avg)
[3] = test system: IFN-g secretion from T cells in human whole blood
[4] = read-out: WB (IFNg) IC5- (nM, Avg)
[5] = read-out: WB (IFNg) IC50 (nM, Avg)

Sequence of hKv1.3 (P22001 whole entry): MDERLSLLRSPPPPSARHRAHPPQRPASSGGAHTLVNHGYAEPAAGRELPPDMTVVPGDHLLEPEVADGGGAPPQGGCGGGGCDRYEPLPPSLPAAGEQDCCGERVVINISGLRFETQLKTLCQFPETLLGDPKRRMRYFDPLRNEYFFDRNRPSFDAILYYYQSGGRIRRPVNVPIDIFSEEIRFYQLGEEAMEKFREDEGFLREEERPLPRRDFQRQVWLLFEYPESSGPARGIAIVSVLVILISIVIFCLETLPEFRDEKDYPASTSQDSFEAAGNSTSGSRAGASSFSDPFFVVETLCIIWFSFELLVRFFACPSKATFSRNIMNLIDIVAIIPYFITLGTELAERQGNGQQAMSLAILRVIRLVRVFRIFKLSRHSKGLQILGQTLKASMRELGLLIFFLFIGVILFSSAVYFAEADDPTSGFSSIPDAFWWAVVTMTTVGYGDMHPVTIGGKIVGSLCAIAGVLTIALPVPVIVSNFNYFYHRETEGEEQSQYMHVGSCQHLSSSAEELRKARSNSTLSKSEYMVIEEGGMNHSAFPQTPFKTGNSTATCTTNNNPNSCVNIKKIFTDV

## CC[C@H](C)[C@@H]1NC(=O)[C@@H](NC(=O)[C@H](CO)NC(=O)[C@@H](N)CCCNC(=N)N)CSSC[C@@H](C(=O)O)NC(=O)[C@H]([C@@H](C)O)NC(=O)CNC(=O)[C@@H]2CSSC[C@@H]3NC(=O)[C@H](CCC(N)=O)NC(=O)[C@H](Cc4ccccc4)NC(=O)[C@H](C)NC(=O)[C@H]([C@@H](C)O)NC(=O)[C@H](CSSC[C@H](NC(=O)[C@H](Cc4ccccc4)NC(=O)[C@H](CO)NC(=O)[C@H](CCC(=O)O)NC(=O)[C@H](CCCNC(=N)N)NC(=O)[C@H](Cc4ccc(O)cc4)NC(=O)[C@H](CCCCN)NC(=O)[C@H](CCSC)NC(=O)[C@H](CO)NC(=O)[C@H](Cc4c[nH]cn4)NC(=O)[C@H](CCCCN)NC3=O)C(=O)N[C@@H](CCCNC(=N)N)C(=O)N[C@@H](CCCCN)C(=O)N[C@@H]([C@@H](C)O)C(=O)N2)NC(=O)[C@H](CCCNC(=N)N)NC(=O)[C@H](CO)NC(=O)[C@H](CCCCN)NC(=O)[C@@H]2CCCN2C(=O)[C@H]([C@@H](C)CC)NC(=O)[C@H]([C@@H](C)O)NC(=O)[C@H](CC(=O)O)NC1=O [[Glu25]ShK]
[1]
  IC50: 0.24 nM
[2]
  IC50: 0.494 nM
[3]; [4]
  IC50: 0.678 nM

## CC[C@H](C)[C@@H]1NC(=O)[C@@H](NC(=O)[C@H](CO)NC(=O)[C@@H](N)CCCNC(=N)N)CSSC[C@@H](C(N)=O)NC(=O)[C@H]([C@@H](C)O)NC(=O)CNC(=O)[C@@H]2CSSC[C@@H]3NC(=O)[C@H](CCCCN)NC(=O)[C@H](Cc4ccccc4)NC(=O)[C@H](C)NC(=O)[C@H]([C@@H](C)O)NC(=O)[C@H](CSSC[C@H](NC(=O)[C@H](Cc4ccccc4)NC(=O)[C@H](Cc4ccccc4)NC(=O)[C@H](CC(C)C)NC(=O)[C@H](CCCNC(=N)N)NC(=O)[C@H](Cc4ccc(O)cc4)NC(=O)[C@H](CCCCN)NC(=O)[C@H](CCSC)NC(=O)[C@H](CO)NC(=O)[C@H](Cc4c[nH]cn4)NC(=O)[C@H](CCCCN)NC3=O)C(=O)N[C@@H](CCCCN)C(=O)N[C@@H](CCCCN)C(=O)N[C@@H]([C@@H](C)O)C(=O)N2)NC(=O)[C@H](CCCNC(=N)N)NC(=O)[C@H](CO)NC(=O)[C@H](CCCCN)NC(=O)[C@@H]2CCCN2C(=O)[C@H]([C@@H](C)CC)NC(=O)[C@H]([C@@H](C)O)NC(=O)[C@H](CC(=O)O)NC1=O [[Lys16, 29;Phe26]ShK-amide]
[1]
  IC50: 0.542 nM
[2]
  IC50: 1.42 nM
[3]; [5]
  IC50: 1.36 nM

## CCCC[C@@H]1NC(=O)[C@H](CO)NC(=O)[C@H](Cc2c[nH]cn2)NC(=O)[C@H](CCC(=O)O)NC(=O)[C@@H]2CSSC[C@@H]3NC(=O)[C@H]([C@@H](C)O)NC(=O)[C@H](CCCCN)NC(=O)[C@H](CCCNC(=N)N)NC(=O)[C@H](CSSC[C@H](NC(=O)[C@H](CCCNC(=N)N)NC(=O)[C@H](CO)NC(=O)[C@H](CCCCN)NC(=O)[C@@H]4CCCN4C(=O)[C@H]([C@@H](C)CC)NC(=O)[C@H]([C@@H](C)O)NC(=O)[C@H](CC(=O)O)NC(=O)[C@H](CCC(=O)O)NC(=O)[C@@H](NC(=O)[C@H](CO)NC(=O)[C@@H](N)CCCNC(=N)N)CSSC[C@@H](C(N)=O)NC(=O)[C@H]([C@@H](C)O)NC(=O)CNC3=O)C(=O)N[C@@H]([C@@H](C)O)C(=O)N[C@@H](C)C(=O)N[C@@H](Cc3ccccc3)C(=O)N[C@@H](CCCCN)C(=O)N2)NC(=O)[C@H](Cc2ccccc2)NC(=O)[C@H](CO)NC(=O)[C@H](CC(C)C)NC(=O)[C@H](CCCNC(=N)N)NC(=O)[C@H](Cc2ccc(O)cc2)NC(=O)[C@H](CCCCN)NC1=O [[Glu4,18, Lys16,Nle21]ShK-amide]
[1]
  IC50: 0.239 nM
[2]
  IC50: 0.603 nM
[3]; [5]
  IC50: 0.934 nM

## CC[C@H](C)[C@@H]1NC(=O)[C@@H](NC(=O)[C@H](CO)NC(=O)[C@@H](N)CCCNC(=N)N)CSSC[C@@H](C(=O)O)NC(=O)[C@H]([C@@H](C)O)NC(=O)CNC(=O)[C@@H]2CSSC[C@@H]3NC(=O)[C@H](CCC(N)=O)NC(=O)[C@H](Cc4ccccc4)NC(=O)[C@H](C)NC(=O)[C@H]([C@@H](C)O)NC(=O)[C@H](CSSC[C@H](NC(=O)[C@H](Cc4ccccc4)NC(=O)[C@H](CO)NC(=O)[C@H](CC(C)C)NC(=O)[C@H](CCCNC(=N)N)NC(=O)[C@H](Cc4ccc(O)cc4)NC(=O)[C@H](CCCCN)NC(=O)[C@H](CCSC)NC(=O)[C@H](CO)NC(=O)[C@H](Cc4c[nH]cn4)NC(=O)[C@H](CCCCN)NC3=O)C(=O)N[C@@H](CCCNC(=N)N)C(=O)N[C@@H](CCCCN)C(=O)N[C@@H]([C@@H](C)O)C(=O)N2)NC(=O)[C@H](CCCNC(=N)N)NC(=O)[C@H](CO)NC(=O)[C@H](CCCCN)NC(=O)[C@H](C)NC(=O)[C@H]([C@@H](C)CC)NC(=O)[C@H]([C@@H](C)O)NC(=O)[C@H](CC(=O)O)NC1=O [[Ala8]ShK]
[1]
  IC50: 0.078 nM
[2]
  IC50: 0.039 nM
[3]; [5]
  IC50: 0.061 nM

## CC[C@H](C)[C@@H]1NC(=O)[C@@H](NC(=O)[C@H](CO)NC(=O)[C@@H](N)CCCNC(=N)N)CSSC[C@@H](C(=O)O)NC(=O)[C@H]([C@@H](C)O)NC(=O)CNC(=O)[C@@H]2CSSC[C@@H]3NC(=O)[C@H](CCC(N)=O)NC(=O)[C@H](Cc4ccccc4)NC(=O)[C@H](C)NC(=O)[C@H]([C@@H](C)O)NC(=O)[C@H](CSSC[C@H](NC(=O)[C@H](Cc4ccccc4)NC(=O)[C@H](CO)NC(=O)[C@H](Cc4cccc5ccccc45)NC(=O)[C@H](CCCNC(=N)N)NC(=O)[C@H](Cc4ccc(O)cc4)NC(=O)[C@H](CCCCN)NC(=O)[C@H](CCSC)NC(=O)[C@H](CO)NC(=O)[C@H](Cc4c[nH]cn4)NC(=O)[C@H](CCCCN)NC3=O)C(=O)N[C@@H](CCCNC(=N)N)C(=O)N[C@@H](CCCCN)C(=O)N[C@@H]([C@@H](C)O)C(=O)N2)NC(=O)[C@H](CCCNC(=N)N)NC(=O)[C@H](CO)NC(=O)[C@H](CCCCN)NC(=O)[C@@H]2CCCN2C(=O)[C@H]([C@@H](C)CC)NC(=O)[C@H]([C@@H](C)O)NC(=O)[C@H](CC(=O)O)NC1=O [[1-Nal25]ShK]
[1]
  IC50: 0.106 nM
[2]
  IC50: 0.061 nM
[3]; [5]
  IC50: 0.084 nM

## CC[C@H](C)[C@@H]1NC(=O)[C@@H](NC(=O)[C@H](CO)NC(=O)[C@@H](N)CCCNC(=N)N)CSSC[C@@H](C(=O)O)NC(=O)[C@H]([C@@H](C)O)NC(=O)[C@H](CCCNC(=N)N)NC(=O)[C@@H]2CSSC[C@@H]3NC(=O)[C@H](CCC(N)=O)NC(=O)[C@H](Cc4ccccc4)NC(=O)[C@H](C)NC(=O)[C@H]([C@@H](C)O)NC(=O)[C@H](CSSC[C@H](NC(=O)[C@H](Cc4ccccc4)NC(=O)[C@H](CO)NC(=O)[C@H](CC(C)C)NC(=O)[C@H](CCCNC(=N)N)NC(=O)[C@H](Cc4ccc(O)cc4)NC(=O)[C@H](CCCCN)NC(=O)[C@H](CCSC)NC(=O)[C@H](CO)NC(=O)[C@H](Cc4c[nH]cn4)NC(=O)[C@H](CCCCN)NC3=O)C(=O)N[C@@H](CCCNC(=N)N)C(=O)N[C@@H](CCCCN)C(=O)N[C@@H]([C@@H](C)O)C(=O)N2)NC(=O)[C@H](CCCNC(=N)N)NC(=O)[C@H](CO)NC(=O)[C@H](CCCCN)NC(=O)[C@@H]2CCCN2C(=O)[C@H]([C@@H](C)CC)NC(=O)[C@H]([C@@H](C)O)NC(=O)[C@H](CC(=O)O)NC1=O [[Arg33]ShK]
[1]
  IC50: 0.102 nM
[2]
  IC50: 0.068 nM
[3]; [5]
  IC50: 0.232 nM

## CCC[C@@H]1NC(=O)[C@H](CO)NC(=O)[C@H](Cc2c[nH]cn2)NC(=O)[C@H](CCCCN)NC(=O)[C@@H]2CSSC[C@@H]3NC(=O)[C@H]([C@@H](C)O)NC(=O)[C@H](CCCCN)NC(=O)[C@H](CCCNC(=N)N)NC(=O)[C@H](CSSC[C@H](NC(=O)[C@H](CCCNC(=N)N)NC(=O)[C@H](CO)NC(=O)[C@H](CCCCN)NC(=O)[C@@H]4CCCN4C(=O)[C@H]([C@@H](C)CC)NC(=O)[C@H]([C@@H](C)O)NC(=O)[C@H](CC(=O)O)NC(=O)[C@H]([C@@H](C)CC)NC(=O)[C@@H](NC(=O)[C@H](CO)NC(=O)[C@@H](N)CCCNC(=N)N)CSSC[C@@H](C(=O)N[C@@H](C)C(=O)O)NC(=O)[C@H]([C@@H](C)O)NC(=O)CNC3=O)C(=O)N[C@@H]([C@@H](C)O)C(=O)N[C@@H](C)C(=O)N[C@@H](Cc3ccccc3)C(=O)N[C@@H](CCCCN)C(=O)N2)NC(=O)[C@H](Cc2ccccc2)NC(=O)[C@H](CO)NC(=O)[C@H](CC(C)C)NC(=O)[C@H](CCCNC(=N)N)NC(=O)[C@H](Cc2ccc(O)cc2)NC(=O)[C@H](CCCCN)NC1=O [[Lys16,Nva21]ShK-Ala]
[1]
  IC50: 13.5 nM
[2]
  IC50: 0.164 nM
[3]; [5]
  IC50: 0.307 nM

## CC[C@H](C)[C@@H]1NC(=O)[C@@H](NC(=O)[C@H](CO)NC(=O)[C@@H](N)CCCNC(=N)N)CSSC[C@@H](C(=O)O)NC(=O)[C@H]([C@@H](C)O)NC(=O)CNC(=O)[C@@H]2CSSC[C@@H]3NC(=O)[C@H](CCC(N)=O)NC(=O)[C@H](Cc4ccccc4)NC(=O)[C@H](C)NC(=O)[C@H]([C@@H](C)O)NC(=O)[C@H](CSSC[C@H](NC(=O)[C@H](Cc4ccccc4)NC(=O)[C@H](CO)NC(=O)[C@H](CC(C)C)NC(=O)[C@H](CCCNC(=N)N)NC(=O)[C@H](Cc4ccc(O)cc4)NC(=O)[C@H](CCCCN)NC(=O)[C@H](CCSC)NC(=O)[C@H](CO)NC(=O)[C@H](Cc4c[nH]cn4)NC(=O)[C@H](CCC(=O)O)NC3=O)C(=O)N[C@@H](CCCNC(=N)N)C(=O)N[C@@H](CCCCN)C(=O)N[C@@H]([C@@H](C)O)C(=O)N2)NC(=O)[C@H](CCCNC(=N)N)NC(=O)[C@H](CO)NC(=O)[C@H](CCCCN)NC(=O)[C@@H]2CCCN2C(=O)[C@H]([C@@H](C)CC)NC(=O)[C@H]([C@@H](C)O)NC(=O)[C@H](CC(=O)O)NC1=O [[Glu18]ShK]
[1]
  IC50: 0.117 nM
[2]
  IC50: 0.047 nM
[3]; [4]
  IC50: 0.083 nM

## CC[C@H](C)[C@@H]1NC(=O)[C@@H](NC(=O)[C@H](CO)NC(=O)[C@@H](N)CCCNC(=N)N)CSSC[C@@H](C(=O)O)NC(=O)[C@H]([C@@H](C)O)NC(=O)CNC(=O)[C@@H]2CSSC[C@@H]3NC(=O)[C@H](CCC(N)=O)NC(=O)[C@H](Cc4ccccc4)NC(=O)[C@H](C)NC(=O)[C@H]([C@@H](C)O)NC(=O)[C@H](CSSC[C@H](NC(=O)[C@H](Cc4ccccc4)NC(=O)[C@H](CO)NC(=O)[C@H](CC(C)C)NC(=O)[C@H](CCCNC(=N)N)NC(=O)[C@H](C)NC(=O)[C@H](CCCCN)NC(=O)[C@H](CCSC)NC(=O)[C@H](CO)NC(=O)[C@H](Cc4c[nH]cn4)NC(=O)[C@H](CCCCN)NC3=O)C(=O)N[C@@H](CCCNC(=N)N)C(=O)N[C@@H](CCCCN)C(=O)N[C@@H]([C@@H](C)O)C(=O)N2)NC(=O)[C@H](CCCNC(=N)N)NC(=O)[C@H](CO)NC(=O)[C@H](CCCCN)NC(=O)[C@@H]2CCCN2C(=O)[C@H]([C@@H](C)CC)NC(=O)[C@H]([C@@H](C)O)NC(=O)[C@H](CC(=O)O)NC1=O [Tyr23(A)]
[1]
  IC50: 0.621 nM
[2]
  IC50: 3.75 nM
[3]; [5]
  IC50: 5.44 nM
